In patent publication US20240269139A1, “COMPOUNDS FOR TARGETED PROTEIN DEGRADATION OF KINASES” (DANA-FARBER CANCER INSTITUTE, INC., priority 2020, published 2024):
Read-outs that look alike come from different tables or passages of the source.

What was measured:
[1] = target: protein kinases (human kinome) (Homo sapiens, UniProt O00746); type: cell-based; settings: NME4 (O00746); experiment wp084
CRBN = target: T1, CRBN (Homo sapiens, UniProt Q96SW2); test: Competitive displacement assay for cellular CRBN engagement (BRD4BD2-GFP reporter, dBET6); type: cell-based, H. sapiens; settings: 5 hours in presence of dBET6
T1 construct: HEK293T cells stably expressing the BRD4BD2-GFP with mCherry reporter; endogenous in cells; host or cells: HEK293T stably expressing BRD4BD2-GFP / mCherry reporter
Procedure: HEK293T cells stably expressing the BRD4BD2-GFP with mCherry reporter were seeded at 30-50% confluency in 384-well plates with 50 μL FluoroBrite™ Dulbecco's Modified Eagle's medium (DMEM) media (Thermo Fisher Scientific. A18967) containing 10% fetal bovine serum (FBS) per well a day before compound treatment. Degrader titrations and 100 nM dBET6 or 250 nM AT1 were dispensed using a D300e Digital Dispenser (HP), normalized to 0.5% DMSO, and incubated with cells for 5 hours. Assay plates were imaged using Acumen® (TTP Labtech), as described above.

[2] = test system: protein kinases in MOLT-4 cells; test: Whole cell quantitative proteomics in MOLT-4 cells; settings: for GCK binding and degradation: 1 μM, 5 h; for kinase degradation over time: MOLT-4, 1 μM, 1, 2, 4, 8 and 12 h
[3] = target: T2, extended human kinome (kinase-like proteins) (Homo sapiens, UniProt Q9UHH9); test: Whole cell quantitative proteomics: extended kinome hits; settings: Accession Q9UHH9
T2 sequence (Q9UHH9 1-426): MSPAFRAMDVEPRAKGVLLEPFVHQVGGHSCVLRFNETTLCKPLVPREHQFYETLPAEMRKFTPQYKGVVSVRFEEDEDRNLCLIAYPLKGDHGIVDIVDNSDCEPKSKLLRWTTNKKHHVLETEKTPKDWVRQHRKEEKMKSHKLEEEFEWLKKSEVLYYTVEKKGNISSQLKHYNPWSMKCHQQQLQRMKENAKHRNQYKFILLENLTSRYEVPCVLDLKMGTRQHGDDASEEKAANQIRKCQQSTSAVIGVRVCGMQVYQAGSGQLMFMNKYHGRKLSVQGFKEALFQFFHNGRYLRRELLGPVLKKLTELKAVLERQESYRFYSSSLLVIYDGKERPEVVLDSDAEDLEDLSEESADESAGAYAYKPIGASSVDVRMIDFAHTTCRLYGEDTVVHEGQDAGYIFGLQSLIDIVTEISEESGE

[4] = target: protein kinases (human kinome) (Homo sapiens, UniProt Q00536); type: cell-based
[5] = target: T3, protein kinases (human kinome) (Homo sapiens, UniProt P52789); type: cell-based; settings: HK2 (P52789); experiment wp076
T3 sequence (P52789 1-917): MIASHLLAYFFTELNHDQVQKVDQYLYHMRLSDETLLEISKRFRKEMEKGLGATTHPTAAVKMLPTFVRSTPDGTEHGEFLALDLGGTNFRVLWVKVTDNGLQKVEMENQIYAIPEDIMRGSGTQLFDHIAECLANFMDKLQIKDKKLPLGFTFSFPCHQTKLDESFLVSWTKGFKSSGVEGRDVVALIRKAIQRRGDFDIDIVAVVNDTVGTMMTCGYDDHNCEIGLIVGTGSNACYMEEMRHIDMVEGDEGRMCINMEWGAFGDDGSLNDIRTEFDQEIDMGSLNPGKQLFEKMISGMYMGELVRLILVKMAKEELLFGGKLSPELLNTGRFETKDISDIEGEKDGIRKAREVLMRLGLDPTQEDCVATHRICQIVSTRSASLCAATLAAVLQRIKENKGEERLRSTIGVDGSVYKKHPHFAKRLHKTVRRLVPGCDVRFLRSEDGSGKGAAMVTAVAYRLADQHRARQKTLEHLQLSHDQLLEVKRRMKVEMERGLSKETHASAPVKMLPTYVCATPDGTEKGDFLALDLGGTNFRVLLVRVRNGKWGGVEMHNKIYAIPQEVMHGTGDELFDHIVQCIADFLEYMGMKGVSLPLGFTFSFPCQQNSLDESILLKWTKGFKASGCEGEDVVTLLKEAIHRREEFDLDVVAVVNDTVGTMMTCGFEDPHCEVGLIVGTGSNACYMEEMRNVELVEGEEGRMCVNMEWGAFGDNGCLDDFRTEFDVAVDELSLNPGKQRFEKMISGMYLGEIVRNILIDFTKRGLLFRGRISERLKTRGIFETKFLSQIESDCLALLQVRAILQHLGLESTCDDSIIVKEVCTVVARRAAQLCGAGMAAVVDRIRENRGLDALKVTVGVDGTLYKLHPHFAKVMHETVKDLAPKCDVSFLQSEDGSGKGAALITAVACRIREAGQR

## CC(=O)c1c(C)c2cnc(Nc3ccc(N4CCN(CCOCCOCCOCCNC(=O)COc5cccc6c5C(=O)N(C5CCC(=O)NC5=O)C6=O)CC4)cn3)nc2n(C2CCCC2)c1=O (centres unmarked) [BSJ.03.123]
[1]
  logFC: −0.3681

## CN(C)C(=O)c1cc2cnc(Nc3ccc(N4CCN(CCCCNC(=O)COc5cccc6c5C(=O)N(C5CCC(=O)NC5=O)C6=O)CC4)cn3)nc2n1C1CCCC1 (centres unmarked) [BSJ.04.132]
[1]
  logFC: −0.4467

## Cc1ccc(NC(=O)c2cccc(C(F)(F)F)c2)cc1N1Cc2cnc(Nc3ccc(N4CCN(Cc5cn(CCCCCOc6cccc7c6C(=O)N(C6CCC(=O)NC6=O)C7=O)nn5)CC4)nc3)nc2N(C)C1=O (centres unmarked) [DB0646, N-(3-(7-((6-(4-((1-(5-((2-(2,6-Dioxopiperidin-3-yl)-1,3-dioxoisoindolin-4-yl)oxy)pentyl)-1H-1,2,3-triazol-4-yl)methyl)piperazin-1-v)pyridin-3-yl)amino)-1-methyl-2-oxo-1,4-dihydropyrimido[4,5-d]pyrimidin-3(2H)-yl)-4-methylphenyl)-3-(trifluoromethyl)benzamide]
CRBN
  cellular permeability / CRBN engagement: able to permeate the cell membrane and bind to the CRBN E3 ligase
[2]
  GCK binding and degradation: bound and degraded
  kinase degradation over time: most kinases showed increased degradation over time

## C[C@@H]1C[C@@H](O)c2ncnc(N3CCN(C(=O)[C@H](CNCCCCCCCCCCc4cccc5c4C(=O)N(C4CCC(=O)NC4=O)C5=O)c4ccc(Cl)cc4)CC3)c21 (some centres unmarked) [INY.03.041.01]
[3]; experiment wp118
  logFC IP6K2: −0.662
[3]; experiment wp135, 4 hr
  logFC IP6K2: −0.3251

## Cc1cnc(Nc2ccc(N3CCN(CCCCCCC(=O)N[C@H](C(=O)N4C[C@H](O)C[C@H]4C(=O)N[C@@H](C)c4ccc(-c5scnc5C)cc4)C(C)(C)C)CC3)cc2)nc1Nc1cccc(S(=O)(=O)NC(C)(C)C)c1 [JWG.123]
[4]; Experiment wp195
  logFC CDK16 (Q00536-1): −0.5026
  logFC of CDK16 (Q00536-1): −0.5026

## CNC(=O)c1ccccc1Nc1cc(Nc2ccc(N3CCN(CCOCCOCCNC(=O)CNc4cccc5c4C(=O)N(C4CCC(=O)NC4=O)C5=O)CC3)cc2OC)ncc1C(F)(F)F (centres unmarked) [MFH.5.103.1]
[5]
  logFC: −0.3819

## O=C1CCC(N2C(=O)c3cccc(NCCCCCCCCN4CCC(NC(=O)c5[nH]ncc5NC(=O)c5c(Cl)cccc5Cl)CC4)c3C2=O)C(=O)N1 (centres unmarked) [MFH.5.126.1]
[5]
  logFC: −0.322

## Cc1ccc(C(=O)Nc2ccc(CN3CCN(CCCOCCOCCOCCNC(=O)COc4cccc5c4C(=O)N(C4CCC(=O)NC4=O)C5=O)CC3)c(C(F)(F)F)c2)cc1C#Cc1cnc2cccnn12 (centres unmarked) [SB1-G-187, N-(4-((4-(1-((2-(2,6-dioxopiperidin-3-yl)-1,3-dioxoisoindolin-4-yl)oxy)-2-oxo-6,9,12-trioxa-3-azapentadecan-15-yl)piperazin-1-yl)methyl)-3 (trifluoromethyl)phenyl)-3-(imidazo[1,2-b]pyridazin-3-ylethynyl)-4-methylbenzamide]
CRBN
  cellular permeability / CRBN engagement: able to permeate the cell membrane and bind to the CRBN E3 ligase
[2]
  GCK binding and degradation: bound and degraded

## CC(C)S(=O)(=O)c1ccccc1Nc1nc(Nc2ccc(N3CCN(CCOCCNC(=O)CNc4cccc5c4C(=O)N(C4CCC(=O)NC4=O)C5=O)CC3)cc2)ncc1Cl (centres unmarked) [SK-3-91]
CRBN
  cellular permeability / CRBN engagement: able to permeate the cell membrane and bind to the CRBN E3 ligase
[2]
  GCK binding and degradation: not degraded
  kinase degradation over time: most kinases showed increased degradation over time

## CC(C)S(=O)(=O)c1ccccc1Nc1nc(Nc2ccc(N3CCN(CCOCCNC(=O)CNc4cccc5c4C(=O)N(C4CCC(=O)NC4=O)C5=O)CC3)cc2)ncc1Cl (centres unmarked) [SK.3.91]
[3]; experiment wp016, 1 uM
  logFC IP6K2: −0.9368
[3]; experiment wp107
  logFC IP6K2: −1.472
[3]; experiment wp133, 1 hr
  logFC IP6K2: −0.4547
[3]; experiment wp133, 2 hr
  logFC IP6K2: −0.6461
[3]; experiment wp133, 4 hr
  logFC IP6K2: −0.9692
[3]; experiment wp160, 2 hr
  logFC IP6K2: −0.4937
[3]; experiment wp160, 4 hr
  logFC IP6K2: −0.6281
[4]; Experiment wp172
  logFC CDK16 (Q00536-1): −0.8169
  logFC of CDK16 (Q00536-1): −0.8169

## CC(C)S(=O)(=O)c1ccccc1Nc1nc(Nc2ccc(N3CCN(CCOCCOCCNC(=O)CNc4cccc5c4C(=O)N(C4CCC(=O)NC4=O)C5=O)CC3)cc2)ncc1Cl (centres unmarked) [TL12.186]
[3]; experiment wp137
  logFC IP6K2: −0.7538
